Experimental data: US20240409519A1, “HYDROGENATED QUINOXALINES” (OTSUKA PHARMACEUTICAL CO., LTD., priority 2021, published 2024)

How the values were obtained:
[1] = target: T1, serotonin (5-HT) uptake (Rattus norvegicus, UniProt P31652); experiment: Serotonin (5-HT) uptake inhibitory activity in rat brain synaptosome; format: biochemical; settings: rat frontal cortex synaptosome, tritium-labeled 5-HT 8 nM; read-out: IC50 (nM), serotonin (5-HT) uptake inhibition
T1 construct: used as crude synaptosomal fraction; from tissue; host or cells: rat frontal cortex, crude synaptosomal fraction
T1 sequence (P31652 whole entry): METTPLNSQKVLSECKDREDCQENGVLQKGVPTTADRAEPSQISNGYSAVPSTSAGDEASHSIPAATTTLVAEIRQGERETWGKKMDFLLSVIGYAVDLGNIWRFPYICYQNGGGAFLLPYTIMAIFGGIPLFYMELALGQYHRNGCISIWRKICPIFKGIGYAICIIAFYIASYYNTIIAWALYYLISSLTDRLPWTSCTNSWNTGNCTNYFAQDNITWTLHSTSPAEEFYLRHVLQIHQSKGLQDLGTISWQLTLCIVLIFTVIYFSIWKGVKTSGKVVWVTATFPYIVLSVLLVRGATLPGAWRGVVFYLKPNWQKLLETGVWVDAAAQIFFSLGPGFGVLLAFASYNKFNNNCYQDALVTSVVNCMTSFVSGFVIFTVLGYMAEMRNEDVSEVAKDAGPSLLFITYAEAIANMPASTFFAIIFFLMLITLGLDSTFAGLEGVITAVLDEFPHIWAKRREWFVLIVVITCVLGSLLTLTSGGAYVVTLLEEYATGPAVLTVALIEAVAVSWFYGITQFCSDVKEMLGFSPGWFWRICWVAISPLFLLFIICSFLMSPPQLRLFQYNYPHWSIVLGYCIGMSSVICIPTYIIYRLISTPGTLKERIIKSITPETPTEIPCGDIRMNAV
Description: Male Wistar rats were decapitated, each brain was removed, and the frontal cortex was cut out. […] The homogenate was centrifuged at 1000 g at 4° C. for 10 minutes, and the supernatant was further centrifuged at 20000 g at 4° C. for 20 minutes. The pellet was suspended in an incubation buffer (20 mM Hepes buffer (pH 7.4) containing 10 mM glucose, 145 mM sodium chloride, 4.5 mM potassium chloride, 1.2 mM magnesium chloride and 1.5 mM calcium chloride) and used as crude synaptosomal fraction.
Each well of a 96-well round-bottom plate was used for the uptake reaction in a total volume of 200 μL solution containing purgurin (final concentration 10 μM) and ascorbic acid (final concentration 0.2 mg/mL). In other words, solvent, unlabeled 5-HT or step-diluted test compound was added to each well, and one-tenth of the final volume of the synaptosomal fraction was added to each well, followed by pre-incubation at 37° C. for 10 minutes, and then tritium-labeled 5-HT solution (final concentration 8 nM) was added and the uptake reaction was initiated at 37° C. After 10 minutes, the uptake reaction was terminated by suction filtration onto a 96-well glass fiber filter plate. The filters were rinsed with cold physi-ological saline solution, dried thoroughly, and micro scintillation 0 (Perkin-Elmer) was added thereto. Then, the residual radioactivity on the filters was measured.
The uptake value when only solvent was added was set as 100%, the uptake value when unlabeled 5-HT (final concentration 10 μM) was added as 0% (nonspecific uptake value), and the 50% inhibitory concentration was calculated from the concentration of the test compound and its inhibitory activity.

[2] = Protein binding rate test (human serum, equilibrium dialysis); format: in vitro ADME; settings: test compound 0.001 mmol/L, equilibrium dialysis 37° C. 6 hours
Description: A serum sample was prepared by adding a test compound solution to a human serum (final concentration of the test compound: 0.001 mmol/L). The serum sample and Dulbecco's Phosphate-Buffered Saline (D-PBS(−)) were added to the wells separated by a dialysis membrane to start the reaction. A solution of the internal standard in methanol was prepared and used as a quenching solution.
Specifically, the dialysis membrane (cut-off molecular weight 12000-14000) was pre-conditioned by immersing it in distilled water, followed by 20% ethanol. Then, the membrane was washed with D-PBS(−) and set in an equilibrium dialysis kit. Then, 150 μL of D-PBS(−) was added to one part of each well divided by the dialysis membrane, and 150 μL of serum sample was added to the other part. After sealing all wells and incubation at 37° C. for 6 hours, 30 μL from the serum side and 90 μL from the PBS side of each well were collected and mixed with 90 μL of D-PBS(−) or 30 μL of blank serum and 480 μL of a quenching solution to quench the reaction.
(§1) The mixture was centrifuged (6130 g, 4° C., 10 minutes) and the supernatant was used as a sample for LC-MS/MS.
Peak area ratio ([peak area of test compound]/[peak area of internal standard]) was calculated for the test compound and the internal standard. By comparing the peak area ratio of the PBS side for each test compound with that of the serum side, the protein binding rate (%) of each test compound was calculated from (1-[peak area ratio of PBS side]/[peak area ratio of serum side])×100.

[3] = Metabolic stability test (human liver microsome, hepatic intrinsic clearance); format: in vitro ADME; settings: human liver microsomes, pH 7.4; human liver microsome 0.2 mg/mL, test compound 0.001 mmol/L, 37° C., 0, 10 and 20 minutes
Description: A metabolic reaction was initiated by adding and mixing a test compound solution (final concentration 0.001 mmol/L) and a NADH/NADPH solution (final concentration 1 mmol/L) to a human liver microsome solution (final concentration 100 mmol/L potassium phosphate buffer solution (pH 7.4), 5 mmol/L magnesium chloride, 0.2 mg/ml, human liver microsome). A solution of the internal standard in methanol was prepared and used as a quenching solution.
Specifically, a metabolic reaction was initiated by adding and mixing 2.5 μL of a solution of a test compound in acetonitrile to 222.5 μL of a human liver microsome solution in ice water, followed by preincubation at 37° C. for 1 minute, and then adding 25 μL of a NADH/NADPH solution thereto.
as §1
Peak area ratio ([peak area of test compound]/[peak area of internal standard]) was calculated for the test compound and the internal standard.
The residual ratio of the test compound was calculated from ([Ratio of peak areas at each reaction time]/[Ratio of peak areas at 0 minute reaction time]).

[4] = target: T2, CYP2C9 (Homo sapiens, UniProt P11712); experiment: CYP inhibition test (1): inhibition rate (%) at one concentration, CYP2C9; format: in vitro ADME; settings: human liver microsomes, pH 7.4, probe diclofenac (0.005 mmol/L); test compound 0.01 mmol/L, human liver microsome 0.1 mg/mL, substrate diclofenac, 37° C. 10 minutes; read-out: inhibition rate (%) 2C9
T2 construct: a human liver microsome solution containing three CYP-specific substrates; from tissue; host or cells: human liver microsomes
T2 sequence (P11712 whole entry): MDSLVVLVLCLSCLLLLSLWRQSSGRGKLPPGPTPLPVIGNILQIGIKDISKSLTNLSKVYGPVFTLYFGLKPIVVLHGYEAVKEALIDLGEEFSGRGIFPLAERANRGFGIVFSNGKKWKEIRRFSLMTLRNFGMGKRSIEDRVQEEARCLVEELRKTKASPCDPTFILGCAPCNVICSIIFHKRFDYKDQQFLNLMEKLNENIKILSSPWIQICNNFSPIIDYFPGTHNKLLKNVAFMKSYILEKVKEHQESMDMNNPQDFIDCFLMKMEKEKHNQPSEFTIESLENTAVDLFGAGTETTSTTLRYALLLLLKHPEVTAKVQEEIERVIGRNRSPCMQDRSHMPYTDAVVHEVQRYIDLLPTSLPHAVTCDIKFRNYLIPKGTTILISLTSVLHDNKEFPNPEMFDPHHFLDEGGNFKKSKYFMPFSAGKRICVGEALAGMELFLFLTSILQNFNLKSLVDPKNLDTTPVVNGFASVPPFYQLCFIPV
Description: (§2) A metabolic reaction was initiated by adding and mixing a test compound solution (final concentration 0.01 mmol/L) and a NADH/NADPH solution (final concentration 1 mmol/L) to a human liver microsome solution containing three CYP-specific substrates (final concentration 100 mmol/L potassium phosphate buffer solution (pH 7.4), 5 mmol/L magnesium chloride, 0.1 mg/mL human liver microsome, 0.005 mmol/L diclofenac (for CYP2C9), 0.01 mmol/L bufuralol (for […]), 0.005 mmol/L midazolam (for CYP3A4)). As an internal standard solution, a solution of each of stable isotopes of the metabolites (50 ng/mL [13C6] hydroxy diclofenac, 5 ng/mL [2H9] hydroxy bufuralol, and 5 ng/mL [13C6] hydroxy midazolam (all stable isotopes)) in methanol was prepared and used as a quenching solution.
(§3) Specifically, a metabolic reaction was initiated by adding and mixing 2 μL of a solution of a test compound in acetonitrile (or acetonitrile as a control) to 178 μL of a human liver microsome solution in ice water, followed by preincubation at 37° C. for 1 minute, and then adding 20 μL of a NADH/NADPH solution thereto. After incubation at 37° C. for 10 minutes, 50 μL of the reaction mixture was taken, and then it was added and mixed to 500 μL of a quenching solution to quech the reaction. The mixture was centrifuged (6130 g, 4° C., 10 minutes) and the supernatant was used as a sample for LC-MS/MS.
(§4) Peak area ratio ([peak area of metabolite]/[peak area of corresponding stable isotope]) was calculated for a metabolite and a stable isotope of the metabolite as measurement object. By comparing the peak area ratio of each test compound solution with that of the control, the inhibition rate (%) of each CYP species for each test compound was calculated from (1-[peak area ratio of each test compound solution]/[peak area ratio of control])×100.

[5] = target: T3, CYP2D6 (Homo sapiens, UniProt P10635); experiment: CYP inhibition test (1): inhibition rate (%) at one concentration, CYP2D6; format: in vitro ADME; settings: human liver microsomes, pH 7.4, probe bufuralol (0.01 mmol/L); test compound 0.01 mmol/L, human liver microsome 0.1 mg/mL, substrate bufuralol, 37° C. 10 minutes; read-out: inhibition rate (%) 2D6
T3 construct: a human liver microsome solution containing three CYP-specific substrates; from tissue; host or cells: human liver microsomes
T3 sequence (P10635 whole entry): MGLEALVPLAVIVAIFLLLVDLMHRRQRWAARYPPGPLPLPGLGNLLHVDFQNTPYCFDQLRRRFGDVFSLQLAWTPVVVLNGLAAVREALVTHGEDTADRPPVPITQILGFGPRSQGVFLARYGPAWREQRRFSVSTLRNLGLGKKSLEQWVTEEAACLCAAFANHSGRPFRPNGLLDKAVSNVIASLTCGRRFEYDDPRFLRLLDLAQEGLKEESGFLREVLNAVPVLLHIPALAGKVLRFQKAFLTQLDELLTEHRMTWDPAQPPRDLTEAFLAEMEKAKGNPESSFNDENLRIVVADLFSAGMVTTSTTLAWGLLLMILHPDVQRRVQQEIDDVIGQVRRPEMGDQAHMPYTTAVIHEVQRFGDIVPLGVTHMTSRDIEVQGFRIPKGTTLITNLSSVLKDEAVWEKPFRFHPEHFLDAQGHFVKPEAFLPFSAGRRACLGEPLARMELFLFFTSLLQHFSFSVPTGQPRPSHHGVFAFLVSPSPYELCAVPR
Description: as §2, §3, §4

IC50 [1] [nM] | fraction unbound at 6 h, 0.001 mmol/L [2] | microsomal CLint at 0.001 mmol/L [3] [µL/min/mg] | inhibition at 10 min, 0.01 mmol/L [4] [%] | inhibition at 10 min, 0.01 mmol/L [5] [%] | Structure (SMILES)
18.1 | 0.58 | < 50 |  |  | COc1cc(N2CC(C)(C)N[C@H]3CCCC[C@@H]32)ccc1OC(F)(F)CO [Example 26]
9 | 0.337 | < 50 | 6.8 | 16.1 | CC1(C)CN(c2ccc(OC(F)(F)CO)cc2F)[C@H]2CCCC[C@H]2N1 [Example 61, 2-(4-((4aR,8aS)-3,3-dimethyloctahydroquinoxalin-1(2H)-yl)-3-fluorophenoxy)-2,2-difluoroethan-1-ol 1/2fumarate]
15.3 | 0.566 | < 50 | -11.4 | 10.2 | CC1(C)CN(c2ccc(OCCO)c(Cl)c2)[C@H]2CCCC[C@H]2N1 [Example 44, 2-(2-chloro-4-((4aR,8aS)-3,3-dimethyloctahydroquinoxalin-1(2H)-yl)phenoxy)ethan-1-ol 1/2fumarate]
57 | 0.285 | < 50 | 0.6 | 28.8 | CC1(C)CN(c2cc(F)c(OC(F)(F)CO)cc2F)[C@H]2CCCC[C@H]2N1 [Example 71]
8.6 | 0.404 | < 50 | 4.6 | 17.8 | CC1(C)CN(c2cc(Br)c(OCCO)cc2F)[C@H]2CCCC[C@H]2N1 [Example 62]
89.9 | 0.585 | < 50 |  |  | CC1(C)CN(c2ccc(OC(F)(F)CO)cc2)[C@@H]2CCCC[C@H]2N1 [Example 21]
9.4 | 0.277 | < 50 | 9.1 | 19.3 | CC1(C)CN(c2cc(Cl)c(OC(F)(F)CO)cc2F)[C@H]2CCCC[C@@H]2N1 [Example 75]
6.1 | 0.401 | < 50 | -6.4 | 15 | OCCOc1c(F)cc(N2CC3(CCC3)N[C@H]3CCCC[C@@H]32)cc1Cl [Example 6]
5.1 | 0.261 | 84 | 1.1 | 19.2 | CC1(C)CN(c2ccc(OCCO)c(Br)c2F)[C@H]2CCCC[C@H]2N1 [Example 63]
98.3 | 0.482 | < 50 |  |  | Cc1cc(N2CC(C)(C)N[C@@H]3CCCC[C@H]32)ccc1OC(F)(F)CO [Example 32]
8.9 | 0.796 | < 50 |  |  | CC1(C)CN(c2cc(F)c(OCCO)c(F)c2)[C@H]2CCCC[C@@H]2N1 [Example 34, 2-(4-((4aS,8aS)-3,3-dimethyloctahydroquinoxalin-1(2H)-yl)-2,6-difluorophenoxy)ethan-1-ol]
7.6 | 0.585 | < 50 |  |  | CC1(C)CN(c2ccc(OCCO)c(Cl)c2)[C@H]2CCCC[C@@H]2N1 [Example 27, 2-(2-chloro-4-((4aS,8aS)-3,3-dimethyloctahydroquinoxalin-1(2H)-yl)phenoxy)ethan-1-ol]
71 | 0.776 | < 50 |  |  | CC1(C)CN(c2cc(F)c(OCCO)c(F)c2)[C@@H]2CCCC[C@H]2N1 [Example 35]
87.4 | 0.529 | < 50 |  |  | CN1[C@H]2CCCC[C@@H]2N(c2ccc(OC(F)(F)CO)cc2)CC1(C)C [Example 37, 2,2-difluoro-2-(4-((4aS,8aS)-3,3,4-trimethyloctahydroquinoxalin-1(2H)-yl)phenoxy)ethan-1-ol]
26.6 | 0.497 | < 50 |  |  | Cc1cc(N2CC(C)(C)N[C@H]3CCCC[C@@H]32)ccc1OC(F)(F)CO [Example 31]
55.1 | 0.616 | < 50 |  |  | CC1(C)CN(c2ccc(OCCO)c(Cl)c2)[C@@H]2CCCC[C@H]2N1 [Example 28]
7.3 | 0.727 | < 50 |  |  | C[C@@H]1CN(c2cc(F)c(OCCO)c(Cl)c2)[C@H]2CCCC[C@@H]2N1 [Example 17, 2-(2-chloro-6-fluoro-4-((3R,4aS,8aS)-3-methyloctahydroquinoxalin-1(2H)-yl)phenoxy)ethan-1-ol 1/2fumarate]
60.1 | 0.638 | < 50 |  |  | CC1(C)CN(c2cc(F)c(OCCO)c(F)c2)[C@H]2CCCC[C@H]2N1 [Example 36]
73.1 | 0.741 | < 50 |  |  | C[C@H]1CN(c2cc(F)c(OCCO)c(Cl)c2)[C@H]2CCCC[C@H]2N1 [Example 18]
4.7 | 0.569 | < 50 |  |  | CC1(C)CN(c2ccc(OC(F)(F)CO)cc2)[C@H]2CCCC[C@@H]2N1 [Example 20, 2-(4-((4aS,8aS)-3,3-dimethyloctahydroquinoxalin-1(2H)-yl)phenoxy)-2,2-difluoroethan-1-ol]
